Results on two compounds are retold here after patent US20260355191A1, “PAN-RAS INHIBITOR COMPOUND” (ADLAI NORTYE BIOPHARMA CO., LTD., priority 2024, published 2026).

The subject of one data set is H358. The data set can be described thus: In vitro cell proliferation inhibition assay (CellTiter-Glo), H358. It counts as cell-based. As to conditions: H358, KRAS (p.G12C), 72 h; read-out: IC50, antiproliferative activity. A general note: Cellular ATP, detected with luciferase, serves as a proxy for viable cell number.
Another data set deals with HCT116. Description: In vitro cell proliferation inhibition assay (CellTiter-Glo), HCT116. It counts as cell-based. As to conditions: HCT116, KRAS (p.G13D), 72 h; read-out: IC50, antiproliferative activity.
The test system of the next data set is HepG2. Description: In vitro cell proliferation inhibition assay (CellTiter-Glo), HepG2. As to conditions: HepG2, NRAS (p.Q61L), 72 h; read-out: IC50, antiproliferative activity. It counts as cell-based.
The test system of a further data set is AsPC-1. The data set can be described thus: In vitro cell proliferation inhibition assay (CellTiter-Glo), AsPC-1. It counts as cell-based. As to conditions: AsPC-1, KRAS (p.G12D), 72 h; read-out: IC50, antiproliferative activity.
A further data set concerns the target T1, cyclophilin A (CypA) (Homo sapiens, UniProt P62937).
T1 construct: purchased R&D 3589-CAB
The data set can be described thus: Binary complex binding assay (BLI). As to conditions: His-tagged CypA, pH 7.4, 1:1 binding model; for Kd: read-out: KD1 (binary complex equilibrium dissociation constant); for kon: read-out: ka (association rate constant); for koff: read-out: kdis (dissociation rate constant). Here is the method: To evaluate the binding ability of the test compounds to cyclophilin A (CypA), we employed a Bio-layer Interferometry (BLI) method (Octet R8) to monitor the binding kinetics between the compounds and CypA, and to calculate the affinity of the binary complex. His-tagged CypA protein (3589-CAB, R&D) was first immobilized on an NTA sensor, followed by baseline equilibration for 120 seconds in the assay buffer (20 mM HEPES, pH 7.4, 150 mM NaCl, 5 mM MgCl2, 1 mM TCEP, 0.01% Tween 20). The sensor was then exposed to buffer solutions containing different concentrations of the compounds to monitor the association process in real time. When the high-concentration compound binding reached a plateau, the sensor was transferred to compound-free buffer to measure the dissociation process. To ensure data accuracy, DMSO normalization was performed, non-specific binding was minimized by buffer optimization, and negative and positive controls were set to verify assay specificity. Data were processed using Octet Analysis Studio 13.0, analyzed using a 1:1 binding model, and the association rate constant (ka), dissociation rate constant (kdis), and equilibrium dissociation constant (KD1) were calculated.

A further data set relates to MV411. The data set can be described thus: In vitro cell proliferation inhibition assay (CellTiter-Glo), MV411. As to conditions: MV411, KRAS wild type, 72 h; read-out: IC50, antiproliferative activity. It counts as cell-based.
The test system of the next data set is PSN1. Description: In vitro cell proliferation inhibition assay (CellTiter-Glo), PSN1. It counts as cell-based. As to conditions: PSN1, KRAS (p.G12R), 72 h; read-out: IC50, antiproliferative activity.
Data set [1] deals with ternary complex comprising RAS and CypA; KRAS^WT (Homo sapiens, UniProt P01116+P62937). The data set can be described thus: Ternary complex binding assay (BLI), KRAS WT. As to conditions: GMPPNP-loaded KRAS^WT, fixed concentration of CypA, pH 7.4, read-out: KD2 (ternary complex equilibrium dissociation constant). Here is the method: (§1) To evaluate the ability of the test compounds to induce the formation of a ternary complex comprising RAS and CypA, we employed a Bio-layer Interferometry (BLI) method (Octet R8) to monitor the binding kinetics among the compounds, RAS, and CypA, and to calculate the affinity of the ternary complex. GMPPNP was first incubated with RAS protein to load GMPPNP onto RAS. His-tagged RAS proteins with different mutations were then immobilized on NTA sensors, followed by baseline equilibration for 120 seconds in the assay buffer (20 mM HEPES, pH 7.4, 150 mM NaCl, 5 mM MgCl2, 1 mM TCEP, 5 μM GMPPNP, 0.01% Tween 20). The sensors were subsequently exposed to buffer containing various concentrations of the compounds and a fixed concentration of CypA, and the association phase of ternary complex formation was monitored in real time. Once binding reached a plateau, the sensors were transferred to compound- and CypA-free buffer to measure the dissociation phase. To ensure accuracy, DMSO normalization was performed, buffer composition was optimized to reduce non-specific binding, and both negative and positive controls were employed to verify assay specificity. Data were processed using Octet Analysis Studio 13.0, analyzed using a 1:1 binding model, and the association rate constant (ka), dissociation rate constant (kdis), and equilibrium dissociation constant (KD2) were calculated.

The nature of data set [2]: Pharmacokinetic study in mice. It counts as in vivo. As to conditions: mouse, male CD-1 mice; for bioavailability: blood; for bioavailability / AUC / Cmax: po; for Vd / clearance: iv; for Vd / clearance / AUC / Cmax: whole blood. Here is the method:
To evaluate the pharmacokinetic behavior of the compounds of the disclosure in male CD-1 mice, the test compounds were dissolved in a solvent (5% DMSO/10% solutol/85% water). Twelve male CD-1 mice were divided into two groups, with six animals in each group. Group 1 received a single intravenous bolus (i.v.) administration of the compound, and Group 2 received a single oral (p.o.) administration of the compound. Whole blood samples were collected at 0.083 h (intravenous group only), 0.25, 0.5, 1, 2, 4, 8, and 24 hours after dosing. The concentration of the test compound in whole blood samples was determined using the LC-MS/MS method.

Data set [3] has as its target ternary complex comprising RAS and CypA; KRAS^G12D (Homo sapiens, UniProt P01116+P62937, G12D). The data set can be described thus: Ternary complex binding assay (BLI), KRAS G12D. As to conditions: GMPPNP-loaded KRAS^G12D, fixed concentration of CypA, pH 7.4, read-out: KD2 (ternary complex equilibrium dissociation constant). Here is the method: as §1
The target in data set [4] is ternary complex comprising RAS and CypA; KRAS^G12V (Homo sapiens, UniProt P01116+P62937, G12V). Description: Ternary complex binding assay (BLI), KRAS G12V. As to conditions: GMPPNP-loaded KRAS^G12V, fixed concentration of CypA, pH 7.4, read-out: KD2 (ternary complex equilibrium dissociation constant). Here is the method:
as §1

The subject of the next data set is SW480. Description: In vitro cell proliferation inhibition assay (CellTiter-Glo), SW480. It counts as cell-based. As to conditions: SW480, KRAS (p.G12V), 72 h; read-out: IC50, antiproliferative activity.

Molecules are shown by their SMILES.

T1 sequence (P62937 whole entry): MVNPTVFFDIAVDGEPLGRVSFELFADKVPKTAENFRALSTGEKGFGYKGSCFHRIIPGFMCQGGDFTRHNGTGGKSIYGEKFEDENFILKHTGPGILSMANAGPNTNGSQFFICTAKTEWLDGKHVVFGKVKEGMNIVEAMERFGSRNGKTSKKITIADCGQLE
Sequence of ternary complex comprising RAS and CypA; KRAS^G12V (P01116 1-188 isoform P01116-2 G12V): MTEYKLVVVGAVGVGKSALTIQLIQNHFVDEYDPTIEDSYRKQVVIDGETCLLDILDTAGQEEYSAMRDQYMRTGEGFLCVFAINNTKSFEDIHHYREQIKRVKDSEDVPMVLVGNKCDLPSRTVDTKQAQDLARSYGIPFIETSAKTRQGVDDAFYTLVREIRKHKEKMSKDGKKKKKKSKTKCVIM
Sequence of ternary complex comprising RAS and CypA; KRAS^G12V (P62937 whole entry): as the sequence (P62937 whole entry) above
Sequence of ternary complex comprising RAS and CypA; KRAS^G12D (P01116 1-188 isoform P01116-2 G12D): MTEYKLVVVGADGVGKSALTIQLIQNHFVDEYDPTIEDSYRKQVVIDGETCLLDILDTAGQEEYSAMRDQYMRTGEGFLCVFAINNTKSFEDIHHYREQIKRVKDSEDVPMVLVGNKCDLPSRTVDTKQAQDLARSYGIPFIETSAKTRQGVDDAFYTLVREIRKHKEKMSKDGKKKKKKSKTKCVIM
Sequence of ternary complex comprising RAS and CypA; KRAS^G12D (P62937 whole entry): as the sequence (P62937 whole entry) above
Sequence of ternary complex comprising RAS and CypA; KRAS^WT (P01116 1-188 isoform P01116-2): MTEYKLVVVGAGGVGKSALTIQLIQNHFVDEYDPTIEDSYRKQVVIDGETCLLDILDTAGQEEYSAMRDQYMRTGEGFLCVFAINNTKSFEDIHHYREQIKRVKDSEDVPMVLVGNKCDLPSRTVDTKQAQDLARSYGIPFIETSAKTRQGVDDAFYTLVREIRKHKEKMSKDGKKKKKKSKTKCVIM
Sequence of ternary complex comprising RAS and CypA; KRAS^WT (P62937 whole entry): as the sequence (P62937 whole entry) above

For orientation: IC50 means the concentration that gives 50% inhibition. By bioavailability is commonly meant the share of a dose that reaches the circulation, judged against a reference dose that is usually intravenous. A higher bioavailability goes with good availability. Usually Vd stands for the apparent volume that relates the amount in the body to the concentration in plasma or blood. By clearance is commonly meant the volume of plasma or blood freed of the substance per unit of time. As a reminder, the AUC is concentration integrated over time. By Cmax is commonly meant the maximum level reached in the sampled fluid or tissue. On to `CO[C@@H](C)c1ncc(-c2nnc(C3CCN(C4COC4)CC3)o2)cc1-c1c2c3cc(ccc3n1CC(F)(F)F)-c1csc(n1)C[C@H](NC(=O)[C@H]1[C@H](C)[C@@H]1C)C(=O)N1CCC[C@H](N1)C(=O)OCC(C)(C)C2` (atropisomer, axis not shown) [Compound 6, (1r,2R,3S)—N-((6^3S,4S,Z)-1^2-(2-((S)-1-methoxyethyl)-5-(5-(1-(oxetan-3-yl)piperidin-4-yl)-1,3,4-oxadiazol-2-yl)pyridin-3-yl)-10,10-dimethyl-5,7-dioxo-1^1-(2,2,2-trifluoroethyl)-6^1,6^2,6^3,6^4,6^5,6^6-hexahydro-1^1H-8-oxa-2(4,2)-thiazola-1(5,3)-indola-6(1,3)-pyridazinacycloundecaphane-4-yl)-2,3-dimethylcyclopropane-1-carboxamide], for which the half-inhibitory concentration (IC50) in the data set on H358 came to 7 pM; in the data set on HCT116, 440 pM; with HepG2, 40 pM; in the data set with AsPC-1, 20 pM; with MV411, 120 pM; in the data set with PSN1, 40 pM. In addition, in the data set on SW480, the concentration for half-maximal inhibition (IC50) turned out to be 30 pM. Further, the Kd was determined as 3000 pM at cyclophilin A (CypA), 16000 pM in data set [1], 24000 pM in data set [3] and 26000 pM in [4]. In addition, at cyclophilin A (CypA), the kon is 130000 M⁻¹ s⁻¹. In addition, at cyclophilin A (CypA), the koff was 0.0004 s⁻¹. In [2] (i.v. 1 mpk, p.o. 2 mpk), this compound registered a bioavailability of 43.1%. In data set [2] (1 mg/kg, i.v. 1 mpk), this compound showed a Vd of 1.14 L/kg. In [2] (1 mg/kg, i.v. 1 mpk), this compound showed a clearance of 2.6 mL/min/kg. Moreover, in data set [2] (2 mg/kg, p.o. 2 mpk), the AUC worked out at 5630 ng·h/mL. The concentration in [2] (2 mg/kg, p.o. 2 mpk) peaked (Cmax) at 439 ng/mL.

For `CO[C@@H](C)c1ncc(-c2nnc(C3CCN(C4COC4)CC3)o2)cc1-c1c2c3cc(ccc3n1CC(F)(F)F)-c1csc(n1)C[C@H](NC(=O)C1[C@@H](C)[C@H]1C)C(=O)N1N[C@H](C(=O)OCC(C)(C)C2)C2CC1C2` (stereo partly drawn) [Compound 8], the IC50 with H358 is 10 pM; in the data set on HCT116, 30 pM; in the data set on HepG2, 20 pM; in the data set on AsPC-1, 10 pM; in the data set with MV411, 70 pM; with PSN1, 10 pM. Moreover, in the data set on SW480, the half-maximal inhibitory concentration (IC50) worked out at 10 pM. In addition, the Kd is 2000 pM at cyclophilin A (CypA), 10000 pM in data set [1], 8800 pM in [3] and 8300 pM in data set [4]. On cyclophilin A (CypA), the kon is 330000 M⁻¹ s⁻¹. The koff at cyclophilin A (CypA) was determined as 0.00066 s⁻¹. The compound further showed a bioavailability in data set [2] (i.v. 0.25 mpk, p.o. 0.5 mpk) of 54.6%. In [2] (i.v. 0.25 mpk), this compound registered a Vd of 1.84 L/kg. Also, the clearance in data set [2] (i.v. 0.25 mpk) turned out to be 1.8 mL/min/kg. This compound also gave an AUC in data set [2] (0.5 mg/kg, p.o. 0.5 mpk) of 2590 ng·h/mL. In data set [2] (0.5 mg/kg, p.o. 0.5 mpk), the peak level (Cmax) was 96 ng/mL.
